Measurements: ChEMBL document CHEMBL4229566, “Discovery of ( S)-3-(3-(3,5-Dimethyl-1 H-pyrazol-1-yl)phenyl)-4-(( R)-3-(2-(5,6,7,8-tetrahydro-1,8-naphthyridin-2-yl)ethyl)pyrrolidin-1-yl)butanoic Acid, a Nonpeptidic αvβ6 Integrin Inhibitor for the Inhaled Treatment of Idiopathic Pulmonary Fibrosis” (J Med Chem, 2018)

What was measured:
[1] = molecular target: T1, Voltage-gated inwardly rectifying potassium channel KCNH2 (Homo sapiens, UniProt Q12809)
Description: (§1) Inhibition of human ERG expressed in HEK293 cells by Barracuda automated patch clamp assay

physchem = conditions: buffer, pH 7.4, logD
[2] = molecular target: T1, Voltage-gated inwardly rectifying potassium channel KCNH2; remark: listed apart in the source
Description: Inhibition of human ERG expressed in HEK293 cells by Q-patch assay

[3] = Protein binding in human blood at 1 ug/ml after 4 hrs by LC-MS/MS analysis; type: ADME, tissue-based; conditions: at 1 µg/mL, read-out: PB (converted)
[4] = molecular target: T1, Voltage-gated inwardly rectifying potassium channel KCNH2; conditions: HEK293 cells expressing hERG
Description: as §1

[5] = buffer, pH 7.4

T1 sequence (Q12809 whole entry): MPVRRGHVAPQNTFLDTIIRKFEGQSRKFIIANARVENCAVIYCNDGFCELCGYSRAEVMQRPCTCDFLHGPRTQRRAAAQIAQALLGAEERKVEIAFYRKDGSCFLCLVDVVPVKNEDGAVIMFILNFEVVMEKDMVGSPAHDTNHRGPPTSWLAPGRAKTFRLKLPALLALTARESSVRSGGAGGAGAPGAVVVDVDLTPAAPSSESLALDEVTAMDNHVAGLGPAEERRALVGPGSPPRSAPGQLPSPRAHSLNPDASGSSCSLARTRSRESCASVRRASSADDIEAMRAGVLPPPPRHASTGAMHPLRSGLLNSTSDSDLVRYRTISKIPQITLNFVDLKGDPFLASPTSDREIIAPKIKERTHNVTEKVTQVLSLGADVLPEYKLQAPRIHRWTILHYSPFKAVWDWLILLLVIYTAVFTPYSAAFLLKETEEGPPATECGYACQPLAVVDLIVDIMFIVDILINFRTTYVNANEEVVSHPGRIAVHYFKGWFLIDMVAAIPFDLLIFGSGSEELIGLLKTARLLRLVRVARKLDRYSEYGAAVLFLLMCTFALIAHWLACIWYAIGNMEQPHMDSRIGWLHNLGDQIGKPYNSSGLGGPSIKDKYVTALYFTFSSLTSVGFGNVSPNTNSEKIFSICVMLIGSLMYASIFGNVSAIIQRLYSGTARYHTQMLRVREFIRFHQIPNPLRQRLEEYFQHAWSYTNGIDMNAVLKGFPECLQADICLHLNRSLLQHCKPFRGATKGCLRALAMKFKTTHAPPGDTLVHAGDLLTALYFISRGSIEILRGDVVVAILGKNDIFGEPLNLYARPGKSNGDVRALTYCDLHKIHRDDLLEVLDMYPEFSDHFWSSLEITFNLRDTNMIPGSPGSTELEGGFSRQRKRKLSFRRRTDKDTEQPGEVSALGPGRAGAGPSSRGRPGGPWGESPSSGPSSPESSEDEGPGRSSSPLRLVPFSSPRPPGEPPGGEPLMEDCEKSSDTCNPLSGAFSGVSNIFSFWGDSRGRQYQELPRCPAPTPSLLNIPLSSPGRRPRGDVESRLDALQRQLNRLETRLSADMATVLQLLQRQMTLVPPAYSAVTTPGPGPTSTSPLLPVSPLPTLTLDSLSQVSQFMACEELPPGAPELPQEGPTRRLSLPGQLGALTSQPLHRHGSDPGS

| SMILES | IC50 [1] | logD (physchem) | IC50 [2] | fraction unbound at 4 h, 1 ug/ml [3] | pIC50 [4] | logD [5] |
| --- | --- | --- | --- | --- | --- | --- |
| Cc1cnn(-c2cccc([C@H](CC(=O)O)CN3CC[C@@H](CCc4ccc5c(n4)NCCC5)C3)c2)c1 | 10 µM | 3.01 |  |  |  |  |
| Cc1cn(C)c(-c2cccc([C@H](CC(=O)O)CN3CC[C@@H](CCc4ccc5c(n4)NCCC5)C3)c2)n1 | > 50.1 µM | 2.09 | > 31.6 µM |  |  |  |
| O=C(O)C[C@H](CN1CC[C@@H](CCc2ccc3c(n2)NCCC3)C1)c1cccc(-n2ccnn2)c1 | > 50.1 µM | 1.75 | > 31.6 µM | 0.28 |  |  |
| O=C(O)C[C@H](CN1CC[C@@H](CCc2ccc3c(n2)NCCC3)C1)c1cccc(C2CCOC2)c1 (stereo in doubt; 28xI2) |  |  | 31.6 µM | 0.17 | 4.4 | 2.58 |
| Cc1nncn1-c1cccc([C@H](CC(=O)O)CN2CC[C@@H](CCc3ccc4c(n3)NCCC4)C2)c1 |  | 1.77 | > 31.6 µM |  |  |  |
| O=C(O)C[C@H](CN1CC[C@@H](CCc2ccc3c(n2)NCCC3)C1)c1cc(C2CC2)cc(N2CCOCC2)c1 |  | 3.07 |  |  |  |  |
